Twelve compounds from ChEMBL document CHEMBL4602637, “Synthesis and biological evaluation of novel pyrazolo[1,5-a]pyrimidines: Discovery of a selective inhibitor of JAK1 JH2 pseudokinase and VPS34” (Bioorg Med Chem Lett, 2020) can be followed below.

Active and inactive are the calls of the source. The calls are words filed in the database; no cut-off is given here.

For test [1], the system named is A2780. The test can be described thus: Antimitotic activity against human A2780 cells by ATP lite luminescence assay. Type of test: functional, cell-based.
The test system of test [2] is MCF7. The test can be described thus: Ratio of EC50 for dorsomorphin to EC50 for test compound for antimitotic activity against human MCF7 cells by ATP lite luminescence assay. The format is functional.
Test [3] concerns A2780. The test can be described thus: Ratio of EC50 for dorsomorphin to EC50 for test compound for antimitotic activity against human A2780 cells by ATP lite luminescence assay. The format is functional.
Test [4] relates to A2780. The test can be described thus: Antimitotic activity against human A2780 cells at 10 uM by ATP lite luminescence assay. The format is functional, cell-based.
The test system of test [5] is MCF7. The experiment in a line: Antimitotic activity against human MCF7 cells by ATP lite luminescence assay. The format is functional, cell-based.
The target of test [6] is Non-receptor tyrosine-protein kinase TYK2 (Homo sapiens) (UniProt P29597). The test can be described thus: Inhibition of wild-type human partial length TYK2 JH2 pseudokinase domain (G556 to D888 residues) expressed in mammalian expression system assessed as enzyme residual activity at 10 uM by Kinomescan method relative to control.
Sequence of Non-receptor tyrosine-protein kinase TYK2 (Homo sapiens) (P29597 whole entry, the tested form may be a part): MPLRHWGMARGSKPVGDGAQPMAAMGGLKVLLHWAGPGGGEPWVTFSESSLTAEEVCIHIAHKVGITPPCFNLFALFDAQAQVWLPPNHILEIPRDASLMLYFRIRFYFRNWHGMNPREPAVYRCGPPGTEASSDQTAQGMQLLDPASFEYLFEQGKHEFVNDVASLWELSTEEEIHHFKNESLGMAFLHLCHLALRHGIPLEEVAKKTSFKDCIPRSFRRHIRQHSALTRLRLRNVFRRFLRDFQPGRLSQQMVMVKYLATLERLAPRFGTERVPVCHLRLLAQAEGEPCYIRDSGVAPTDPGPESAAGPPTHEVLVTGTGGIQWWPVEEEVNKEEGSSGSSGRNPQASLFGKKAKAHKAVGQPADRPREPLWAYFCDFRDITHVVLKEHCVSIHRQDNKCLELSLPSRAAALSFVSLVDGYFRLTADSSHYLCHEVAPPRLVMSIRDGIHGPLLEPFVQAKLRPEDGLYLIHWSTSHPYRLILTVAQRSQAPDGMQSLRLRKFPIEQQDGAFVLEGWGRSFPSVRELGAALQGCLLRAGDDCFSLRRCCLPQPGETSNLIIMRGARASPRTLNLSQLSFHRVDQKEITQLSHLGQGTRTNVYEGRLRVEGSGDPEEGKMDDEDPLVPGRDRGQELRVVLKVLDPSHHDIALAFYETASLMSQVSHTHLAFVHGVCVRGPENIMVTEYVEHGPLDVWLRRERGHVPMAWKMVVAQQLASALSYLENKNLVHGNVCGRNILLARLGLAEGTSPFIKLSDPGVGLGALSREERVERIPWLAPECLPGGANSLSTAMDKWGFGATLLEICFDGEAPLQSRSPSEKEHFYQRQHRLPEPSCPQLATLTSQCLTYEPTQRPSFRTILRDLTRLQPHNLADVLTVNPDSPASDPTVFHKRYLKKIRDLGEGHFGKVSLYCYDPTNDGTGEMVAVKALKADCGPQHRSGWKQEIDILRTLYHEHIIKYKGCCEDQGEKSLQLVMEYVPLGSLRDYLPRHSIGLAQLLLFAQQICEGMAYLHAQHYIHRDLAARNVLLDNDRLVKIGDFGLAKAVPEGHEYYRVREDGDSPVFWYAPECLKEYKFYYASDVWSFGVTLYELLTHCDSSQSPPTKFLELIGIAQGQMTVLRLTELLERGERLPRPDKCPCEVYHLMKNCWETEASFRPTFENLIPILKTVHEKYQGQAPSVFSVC
Test [7] deals with T1, Phosphatidylinositol 3-kinase catalytic subunit type 3 (Homo sapiens, UniProt Q8NEB9). The experiment in a line: Inhibition of wild-type human partial length PIK3C3 (S282 to H879 residues) expressed in mammalian expression system assessed as enzyme residual activity at 10 uM by Kinomescan method relative to control.
T1 sequence (Q8NEB9 whole entry, the tested form may be a part): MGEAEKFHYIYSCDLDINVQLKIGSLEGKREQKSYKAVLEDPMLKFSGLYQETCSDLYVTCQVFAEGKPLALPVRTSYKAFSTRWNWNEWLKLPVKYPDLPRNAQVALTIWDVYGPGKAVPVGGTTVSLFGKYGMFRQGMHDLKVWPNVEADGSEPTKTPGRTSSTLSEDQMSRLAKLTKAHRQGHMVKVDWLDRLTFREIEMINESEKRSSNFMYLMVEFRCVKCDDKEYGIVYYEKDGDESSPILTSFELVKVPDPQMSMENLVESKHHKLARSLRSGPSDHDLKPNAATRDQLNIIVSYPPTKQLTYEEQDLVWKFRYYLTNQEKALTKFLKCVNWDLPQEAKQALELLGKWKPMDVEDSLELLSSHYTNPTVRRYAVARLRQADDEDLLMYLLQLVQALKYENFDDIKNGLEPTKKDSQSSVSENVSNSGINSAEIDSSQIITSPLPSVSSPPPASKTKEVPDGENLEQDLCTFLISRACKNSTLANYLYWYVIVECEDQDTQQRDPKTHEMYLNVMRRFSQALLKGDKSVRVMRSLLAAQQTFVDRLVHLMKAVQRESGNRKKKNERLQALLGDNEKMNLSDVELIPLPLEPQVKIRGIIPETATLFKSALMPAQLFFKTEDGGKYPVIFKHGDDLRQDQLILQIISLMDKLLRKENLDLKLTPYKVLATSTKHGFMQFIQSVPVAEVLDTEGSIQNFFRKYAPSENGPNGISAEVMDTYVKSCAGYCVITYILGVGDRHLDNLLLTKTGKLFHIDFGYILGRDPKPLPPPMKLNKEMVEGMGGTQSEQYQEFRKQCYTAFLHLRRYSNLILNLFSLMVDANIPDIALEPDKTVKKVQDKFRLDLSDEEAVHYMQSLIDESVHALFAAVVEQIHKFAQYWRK
The target of test [8] is T2, Ephrin type-B receptor 6 (Homo sapiens) (UniProt O15197).
T2 sequence (whole entry): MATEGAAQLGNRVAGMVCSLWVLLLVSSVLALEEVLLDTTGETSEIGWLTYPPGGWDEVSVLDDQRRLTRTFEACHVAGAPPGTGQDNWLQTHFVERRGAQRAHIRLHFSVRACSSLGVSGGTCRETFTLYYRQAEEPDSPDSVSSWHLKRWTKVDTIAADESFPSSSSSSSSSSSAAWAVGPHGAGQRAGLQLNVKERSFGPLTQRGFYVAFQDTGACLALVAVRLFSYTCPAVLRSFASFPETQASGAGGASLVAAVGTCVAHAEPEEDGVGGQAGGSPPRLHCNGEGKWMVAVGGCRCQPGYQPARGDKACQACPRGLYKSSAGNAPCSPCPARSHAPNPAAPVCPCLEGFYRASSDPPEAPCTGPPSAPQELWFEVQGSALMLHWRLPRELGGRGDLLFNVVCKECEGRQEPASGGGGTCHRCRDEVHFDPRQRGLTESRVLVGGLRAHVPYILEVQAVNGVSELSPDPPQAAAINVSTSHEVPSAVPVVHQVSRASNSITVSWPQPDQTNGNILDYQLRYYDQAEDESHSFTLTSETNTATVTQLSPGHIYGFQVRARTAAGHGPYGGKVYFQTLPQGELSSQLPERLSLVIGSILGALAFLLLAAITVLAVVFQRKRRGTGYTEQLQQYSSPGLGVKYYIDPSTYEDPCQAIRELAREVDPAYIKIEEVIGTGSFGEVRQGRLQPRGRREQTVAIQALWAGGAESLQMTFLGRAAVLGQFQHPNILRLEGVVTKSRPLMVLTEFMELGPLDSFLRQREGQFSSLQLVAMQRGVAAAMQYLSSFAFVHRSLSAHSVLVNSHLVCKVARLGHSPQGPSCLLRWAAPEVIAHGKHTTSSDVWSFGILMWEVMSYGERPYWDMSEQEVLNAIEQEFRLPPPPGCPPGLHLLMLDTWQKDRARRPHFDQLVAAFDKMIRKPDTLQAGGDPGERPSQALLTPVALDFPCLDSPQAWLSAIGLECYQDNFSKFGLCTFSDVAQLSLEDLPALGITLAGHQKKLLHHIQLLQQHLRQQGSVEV
The experiment in a line: Inhibition of wild-type human partial length EPHB6 (Q634 to P948 residues) expressed in mammalian expression system assessed as enzyme residual activity at 10 uM by Kinomescan method relative to control.

Test [9] deals with T3, Tyrosine-protein kinase JAK1 (Homo sapiens, UniProt P23458). The experiment in a line: Inhibition of wild-type human partial length JAK1 JH2 pseudokinase domain (R537 to D855 residues) expressed in mammalian expression system assessed as enzyme residual activity at 10 uM by Kinomescan method relative to control.
T3 sequence (P23458 whole entry, the tested form may be a part): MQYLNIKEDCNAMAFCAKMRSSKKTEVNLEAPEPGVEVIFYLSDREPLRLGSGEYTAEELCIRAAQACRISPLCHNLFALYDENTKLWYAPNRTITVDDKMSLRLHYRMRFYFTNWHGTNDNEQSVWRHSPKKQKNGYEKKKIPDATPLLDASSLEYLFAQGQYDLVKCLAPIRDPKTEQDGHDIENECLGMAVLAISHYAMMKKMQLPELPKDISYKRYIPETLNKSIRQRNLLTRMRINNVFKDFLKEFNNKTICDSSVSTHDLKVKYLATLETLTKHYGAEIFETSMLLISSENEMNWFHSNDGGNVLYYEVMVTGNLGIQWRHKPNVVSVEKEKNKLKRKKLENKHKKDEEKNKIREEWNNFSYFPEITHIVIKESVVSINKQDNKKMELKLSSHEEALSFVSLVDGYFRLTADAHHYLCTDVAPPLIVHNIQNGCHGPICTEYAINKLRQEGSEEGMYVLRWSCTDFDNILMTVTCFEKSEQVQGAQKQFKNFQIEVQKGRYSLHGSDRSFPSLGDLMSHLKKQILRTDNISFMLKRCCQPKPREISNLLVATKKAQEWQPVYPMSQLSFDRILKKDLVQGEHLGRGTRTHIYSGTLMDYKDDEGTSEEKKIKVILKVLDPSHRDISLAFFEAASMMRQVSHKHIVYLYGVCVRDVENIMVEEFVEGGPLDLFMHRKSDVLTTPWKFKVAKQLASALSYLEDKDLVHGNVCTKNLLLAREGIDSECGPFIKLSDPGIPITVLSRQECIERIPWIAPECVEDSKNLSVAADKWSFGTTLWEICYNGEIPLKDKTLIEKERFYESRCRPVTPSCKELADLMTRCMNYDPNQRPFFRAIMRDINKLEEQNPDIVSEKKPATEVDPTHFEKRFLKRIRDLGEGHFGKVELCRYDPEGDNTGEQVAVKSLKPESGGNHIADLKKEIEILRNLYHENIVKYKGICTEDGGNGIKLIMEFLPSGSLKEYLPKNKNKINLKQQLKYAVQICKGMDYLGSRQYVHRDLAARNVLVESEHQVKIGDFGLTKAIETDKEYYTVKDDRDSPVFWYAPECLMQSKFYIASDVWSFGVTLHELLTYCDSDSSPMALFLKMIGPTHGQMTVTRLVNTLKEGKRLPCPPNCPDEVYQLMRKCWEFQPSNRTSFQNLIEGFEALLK
The next test is filed under the species Homo sapiens. The experiment in a line: Ratio for inhibition of wild-type human partial length TYK2 JH2 pseudokinase domain (G556 to D888 residues) expressed in mammalian expression system at 10 uM by Kinomescan method relative to control to inhibition of wild-type human partial length JAK1 JH2 pseudokinase domain (R537 to D855 residues) expressed in mammalian expression system at 10 uM by Kinomescan method relative to control.

Test [10] has as its target T3, Tyrosine-protein kinase JAK1. The experiment in a line: Binding affinity to wild-type human partial length JAK1 JH2 pseudokinase domain (R537 to D855 residues) expressed in mammalian expression system at 10 uM by Kinomescan method relative to control.
Test [11] has as its target T4, Dual specificity mitogen-activated protein kinase kinase 5 (Homo sapiens) (UniProt Q13163).
T4 sequence (whole entry): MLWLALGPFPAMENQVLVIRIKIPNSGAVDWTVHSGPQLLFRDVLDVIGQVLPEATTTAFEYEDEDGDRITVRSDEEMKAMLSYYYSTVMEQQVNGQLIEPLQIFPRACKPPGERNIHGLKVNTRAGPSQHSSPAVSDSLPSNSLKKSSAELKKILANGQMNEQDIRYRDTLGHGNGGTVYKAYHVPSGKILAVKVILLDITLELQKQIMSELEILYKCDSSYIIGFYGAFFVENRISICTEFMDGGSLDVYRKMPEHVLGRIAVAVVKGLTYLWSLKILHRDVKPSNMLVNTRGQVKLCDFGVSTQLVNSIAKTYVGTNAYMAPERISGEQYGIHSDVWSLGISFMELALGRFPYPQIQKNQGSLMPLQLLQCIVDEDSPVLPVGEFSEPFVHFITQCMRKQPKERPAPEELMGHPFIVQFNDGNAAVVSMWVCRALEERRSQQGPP
The experiment in a line: Inhibition of wild-type human partial length MEK5 (L98 to P448 residues) expressed in mammalian expression system assessed as enzyme residual activity at 10 uM by Kinomescan method relative to control.

Test [12] concerns the target T1, Phosphatidylinositol 3-kinase catalytic subunit type 3. The test can be described thus: Binding affinity to wild-type human partial length PIK3C3 (S282 to H879 residues) expressed in mammalian expression system at 10 uM by Kinomescan method relative to control.

Consider `CN1CCN(CCOc2ccc(-c3cnc4c(-c5ccccc5F)cnn4c3)cc2)CC1`, for which the EC50 (commonly the concentration needed to bring the measured effect to its halfway point) with A2780 [1] stood at 520 nM. The “Ratio EC50” value worked out at 3 with MCF7 [2] and 2 in the test on A2780 [3]. Also, the result in the test on A2780 [4] was Active.
On to `CN1CCN(CCOc2ccc(-c3cnc4c(-c5cccc(F)c5)cnn4c3)cc2)CC1`, for which the EC50 in the test with A2780 [1] was found to be 950 nM. Further, the outcome with A2780 [4] was Active.
In the case of `FC(F)(F)c1ccc(-c2cnn3cc(-c4ccc(OCCN5CCCCC5)cc4)cnc23)cc1`, the EC50 came out at 2300 nM in the test with A2780 [1] and 1600 nM with MCF7 [5]. For the same compound, the outcome in the test with A2780 [4] was Active.
With `Fc1ccccc1-c1cnn2cc(-c3ccc(OCCN4CCCCC4)cc3)cnc12`, the values for the EC50 in the test on A2780 [1] and with MCF7 [5] were 2700 nM and 2800 nM, respectively. In addition, the result in the test on A2780 [4] was Active.
As for `Fc1cccc(-c2cnn3cc(-c4ccc(OCCN5CCCCC5)cc4)cnc23)c1`, the figures for the EC50 in the test with A2780 [1] and in the test with MCF7 [5] were 1200 nM and 2200 nM, respectively. Besides, the Activity was less than 10% in test [6], 100% in [7], less than 10% in test [8] and 41% in test [9]. The outcome in the test on A2780 [4] was Active.
On to `Fc1cccc(-c2cnn3cc(-c4ccc(OCCN5CCCCC5)cc4)cnc23)c1F`, for which the results for the half-maximal effective concentration (EC50) in the test on A2780 [1] and in the test with MCF7 [5] were 1400 nM and 4300 nM, respectively. In addition, the result with A2780 [4] was Active.
As for `c1ccc2sc(-c3cnn4cccnc34)nc2c1`, the Ratio in the test filed under Homo sapiens was found to be 6. The compound also registered an EC50 in the test with A2780 [1] of 900 nM. Further, the Activity came to 5% in test [6]; 0.9% in [7]; 9.9% in test [8]; 3.9% in test [11]; 0.8% in test [9]. Besides, the results for the dissociation constant (Kd) in [10] and in test [12] were 550 nM and 410 nM, respectively. For the same compound, the outcome in the test with A2780 [4] was Active.
Turning to `c1cc(-c2cnn3cc(-c4ccc(OCCN5CCCCC5)cc4)cnc23)ccn1` [DORSOMORPHIN], the EC50 is 900 to 1100 nM in the test with A2780 [1] and 4900 nM in the test with MCF7 [5].
Consider `Fc1ccc(-c2cnn3cc(-c4ccc(OCCN5CCCCC5)cc4)cnc23)cc1`, for which the EC50 in the test with A2780 [1] was found to be 930 nM; with MCF7 [5], 3600 nM. Further, the outcome in the test on A2780 [4] was Active.
`CN1CCN(CCOc2ccc(-c3cnc4c(-c5cccc(F)c5F)cnn4c3)cc2)CC1`: in the test with A2780 [1], the EC50 is 840 nM. The outcome with A2780 [4] was Active.
In the same order, the values of `CN1CCN(CCOc2ccc(-c3cnc4c(-c5ccc(C(F)(F)F)cc5)cnn4c3)cc2)CC1` are 2900 nM and “Active”.
Regarding `CN1CCN(CCOc2ccc(-c3cnc4c(-c5ccc(F)cc5)cnn4c3)cc2)CC1`, in the test with A2780 [1], the EC50 is 1100 nM. The outcome with A2780 [4] was Active.
